# ChEMBL document CHEMBL1144957, “Highly cytotoxic benzo[c]pyrido[2,3,4-kl]acridines” (Bioorg Med Chem Lett, 2003)
# Key:
# Calf thymus DNA [1] = test: Apparent calf thymus DNA-binding constant; format: nucleic-acid assay; details: Bos taurus
# PC-3 = test: In vitro inhibitory concentration against human prostate carcinoma PC-3 cell line using MTT assay after incubation for 72 h; format: functional, cell-based; details: PC-3, 72 h
# Nucleic Acid = test: Binding to DNA as change in thermal denaturation temperature of poly(dAT)2 DNA; format: nucleic-acid assay
# Calf thymus DNA [2] = test: Apparent Calf thymus DNA DNA-binding constant; format: nucleic-acid assay; details: Bos taurus
Compound,K app (Calf thymus DNA [1]) [M⁻¹],IC50 (PC-3) [µM],ΔTm (Nucleic Acid) [°C],K app (Calf thymus DNA [2]) [M⁻¹]
COc1ccc2c(c1)-c1nc3cc(OC)c(OC)c4c3c(c1CC2)CCN4C(=O)CN1CCN(C)CC1,< 50000,> 1,0.9,–
COc1cc2nc3c(c4c2c(c1OC)N(C(=O)CN1CCN(C)CC1)CC4)CCc1cc(OCCCN)ccc1-3,6.66e+06,0.0051,11.9,–
COc1cc2nc3c(c4c2c(c1OC)NCC4)CCc1cc(OCCN)ccc1-3,2.01e+06,> 1,12.1,–
COc1ccc2c(c1)CCc1c-2nc2cc(OC)c(OC)c3c2c1CCN3C(=O)CN1CCN(C)CC1,< 50000,> 1,0.9,–
COc1cc2nc3c(c4c2c(c1OC)N(C(=O)CN1CCN(C)CC1)CC4)CCc1cc(OCCN)ccc1-3,4.51e+06,> 1,11.9,–
COc1cc2nc3c(c4c2c(c1OC)N(C(=O)CN1CCN(C)CC1)CC4)CCc1ccccc1-3,< 50000,> 1,0,–
COc1cc2nc3c(c4c2c(c1OC)NCC4)CCc1cc(O)ccc1-3,1600,> 1,1.1,–
COc1cc2nc3c(c4c2c(c1OC)N(C(C)=O)CC4)CCc1cc(OCCCN)ccc1-3,6300,> 1,3.1,–
COc1ccc2c(c1)CCc1c-2nc2cc(OC)c(OC)c3c2c1CCN3,3000,> 1,0,–
COc1cc2nc3c(c4c2c(c1OC)N(C(C)=O)CC4)CCc1ccccc1-3,–,> 1,–,–
COc1ccc2c(c1)CCc1c-2nc2cc(OC)c(OC)c3c2c1CCN3C(C)=O,–,> 1,–,–
COc1ccc2c(c1)-c1nc3cc(OC)c(OC)c4c3c(c1CC2)CCN4,2400,> 1,0,–
COc1ccc2c(c1)-c1nc3cc(OC)c(OC)c4c3c(c1CC2)CCN4C(C)=O,–,> 1,–,–
COc1cc2nc3c(c4c2c(c1OC)N(C(C)=O)CC4)CCc1cc(OCCCN2CCN(C)CC2)ccc1-3,–,0.0112,0.9,2800
COc1cc2nc3c(c4c2c(c1OC)N(C(C)=O)CC4)CCc1cc(OCCN)ccc1-3,4200,> 1,2.1,–
COc1cc2nc3c(c4c2c(c1OC)NCC4)CCc1cc(OCCCN2CCN(C)CC2)ccc1-3,4.98e+06,0.0199,7.5,–
COc1cc2nc3c(c4c2c(c1OC)NCC4)CCc1ccccc1-3,3600,> 1,0,–
COc1cc2nc3c(c4c2c(c1OC)NCC4)CCc1cc(OCCCN)ccc1-3,6.86e+06,> 1,11.9,–
COc1cc2nc3c(c4c2c(c1OC)N(C(C)=O)CC4)CCc1cc(O)ccc1-3,–,> 1,–,–
COc1cc2nc3c(c4c2c(c1OC)N(C(=O)CN1CCN(C)CC1)CC4)CCc1cc(OCCCN2CCN(C)CC2)ccc1-3,3.04e+06,> 1,0.9,–
